We go through twelve compounds from patent publication US20240158446A1, “CYCLIC COMPOUND HAVING SELECTIVE INHIBITORY ACTION ON KRAS OVER HRAS AND NRAS” (CHUGAI SEIYAKU KABUSHIKI KAISHA, priority 2021, published 2024).

Test [1] concerns the target GDP-bound KRAS wild-type protein (Homo sapiens, UniProt P01116). The experiment in a line: Binding to KRAS by surface plasmon resonance (SPR), Single Cycle Kinetics. The note with it: SPR, Single Cycle Kinetics, GDP-bound KRAS wild-type protein, read-out: KRAS KD.
Test [2] has as its system human lung cancer strain NCI-H441.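 Also: cell proliferation inhibition after four days measured by CellTiter-Glo.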
The target of test [3] is GDP-bound HRAS wild-type protein (Homo sapiens, UniProt P01112). Put plainly: Binding to HRAS by surface plasmon resonance (SPR), Single Cycle Kinetics. The conditions noted are these: SPR, GDP-bound HRAS wild-type protein vs GDP-bound KRAS wild-type protein.
For test [4], the target named is GDP-bound NRAS wild-type protein (Homo sapiens, UniProt P01111). The experiment in a line: Binding to NRAS by surface plasmon resonance (SPR), Single Cycle Kinetics. The conditions noted are these: SPR, GDP-bound NRAS wild-type protein vs GDP-bound KRAS wild-type protein.

Where two headings read alike, the source gives them in different places.

Chain of GDP-bound KRAS wild-type protein (P01116 whole entry): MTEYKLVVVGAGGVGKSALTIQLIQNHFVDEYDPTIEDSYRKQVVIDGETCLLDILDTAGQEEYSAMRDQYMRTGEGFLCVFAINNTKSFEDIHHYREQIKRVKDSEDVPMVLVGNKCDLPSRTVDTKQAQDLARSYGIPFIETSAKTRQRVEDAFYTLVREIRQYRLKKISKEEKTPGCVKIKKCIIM
Chain of GDP-bound NRAS wild-type protein (P01111 whole entry): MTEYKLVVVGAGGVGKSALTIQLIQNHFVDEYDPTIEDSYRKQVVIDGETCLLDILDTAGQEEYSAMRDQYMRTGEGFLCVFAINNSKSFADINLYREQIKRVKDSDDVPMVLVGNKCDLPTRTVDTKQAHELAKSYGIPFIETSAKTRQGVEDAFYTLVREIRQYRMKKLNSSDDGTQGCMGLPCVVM
Chain of GDP-bound HRAS wild-type protein (P01112 whole entry): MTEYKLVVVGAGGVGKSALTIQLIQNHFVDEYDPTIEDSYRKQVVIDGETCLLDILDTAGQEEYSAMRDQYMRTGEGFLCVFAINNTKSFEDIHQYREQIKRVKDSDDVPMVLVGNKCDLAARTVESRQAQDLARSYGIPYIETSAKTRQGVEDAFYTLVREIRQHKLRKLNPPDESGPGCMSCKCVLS

For `CCO[C@@H]1C[C@H]2C(=O)NC3(CCC3)C(=O)N(C)[C@@H](C(CC)CC)C(=O)N(C)[C@H](C(=O)N(C)C)CC(=O)N(C)[C@@H](CC3CC3)C(=O)N[C@@H]([C@@H](C)CC)C(=O)N(C)CC(=O)N(C)[C@H]3C/C=C\CCN(C3=O)[C@@H](Cc3ccc(C(F)(F)F)cc3)C(=O)N(C)CC(=O)N[C@@H](CCc3ccc(C(F)(F)F)c(OC)c3)C(=O)N2C1` [PP1211], in test [1] (1:1 binding model), the Kd came to 0.27 nM. The same compound had an IC50 in test [2] of 26.8 nM. In addition, in test [3] (KD ratio class), the “HRAS/KRAS (ratio of KD value for HRAS to KD value for KRAS)” value is “B (a compound having 3 or more and less than 10 is denoted as B)”. Moreover, the “NRAS/KRAS (ratio of KD value for NRAS to KD value for KRAS)” value in test [4] (KD ratio class) is “A (a compound having 10 or more and less than 20 is denoted as A)”.
In the case of `C#CCN1CC(=O)N(C)[C@H]2C/C=C\CCN(C2=O)[C@@H](Cc2ccc(C)cc2)C(=O)N(C)CC(=O)N[C@@H](CCc2cc(F)c(C(F)(F)F)c(F)c2)C(=O)N2C[C@H](OCC)C[C@H]2C(=O)NC2(CC(C)(C)C2)C(=O)N(C)[C@@H](C2CCCC2)C(=O)N(C)[C@H](C(=O)N(C)C)CC(=O)N(C)[C@@H](CCC)C(=O)N[C@@H](CC(C)C)C1=O` [PP2512], in test [1], the dissociation constant Kd turned out to be 2 nM. Further, inhibition in test [2] was half-maximal at 109 nM (IC50). In test [3], the “HRAS/KRAS (ratio of KD value for HRAS to KD value for KRAS)” value was “A (a compound having 10 or more and less than 20 is denoted as A)”. Also, the “NRAS/KRAS (ratio of KD value for NRAS to KD value for KRAS)” value in test [4] is “A (a compound having 10 or more and less than 20 is denoted as A)”.
For the compound `CC[C@H](C)[C@@H]1NC(=O)[C@H](CC)N(C)C(=O)C[C@@H](C(=O)N(C)C)N(C)C(=O)[C@H](C2CCCC2)N(C)C(=O)C2(CCC2)NC(=O)[C@@H]2C[C@@H](C(F)(F)F)CN2C(=O)[C@H](CCc2cc(F)c(C(F)(F)F)c(F)c2)NC(=O)CN(C)C(=O)[C@H](CC2CCCCC2)N2CC/C=C\C[C@@H](C2=O)N(C)C(=O)CN(C)C1=O` [PP1465], the dissociation constant Kd in test [1] (1:1 binding model) was found to be 0.36 nM. The compound also gave a half-maximal inhibitory concentration (IC50) in test [2] of 34.1 nM. In test [3] (KD ratio class), the “HRAS/KRAS (ratio of KD value for HRAS to KD value for KRAS)” value was “A (a compound having 10 or more and less than 20 is denoted as A)”. In addition, in test [4] (KD ratio class), the “NRAS/KRAS (ratio of KD value for NRAS to KD value for KRAS)” value was “A (a compound having 10 or more and less than 20 is denoted as A)”.
For `CC[C@H](C)[C@@H]1NC(=O)[C@H](CC)N(C)C(=O)C[C@@H](C(=O)N(C)C)N(C)C(=O)[C@H](C2CCCC2)N(C)C(=O)C2(CCC2)NC(=O)[C@@H]2CCCN2C(=O)[C@H](CCc2cc(F)c(C(F)(F)F)c(F)c2)NC(=O)CN(C)C(=O)[C@H](CC2CCCCC2)N2CC/C=C\C[C@@H](C2=O)N(C)C(=O)CN(C)C1=O` [PP1475], the dissociation constant (Kd) in test [1] (1:1 binding model) stood at 0.55 nM. In test [2], this compound displayed an IC50 of 48.9 nM. Also, in test [3] (KD ratio class), the “HRAS/KRAS (ratio of KD value for HRAS to KD value for KRAS)” value is “A (a compound having 10 or more and less than 20 is denoted as A)”. Further, the “NRAS/KRAS (ratio of KD value for NRAS to KD value for KRAS)” value in test [4] (KD ratio class) was “A (a compound having 10 or more and less than 20 is denoted as A)”.
Consider `CCC[C@H]1C(=O)N[C@@H]([C@@H](C)CC)C(=O)N(C)CC(=O)N(C)[C@H]2C/C=C\CCN(C2=O)[C@@H](Cc2ccc(C(F)(F)F)cc2)C(=O)N(C)CC(=O)N[C@@H](CCc2ccc(Cl)c(Cl)c2)C(=O)N2C[C@H](OCC)C[C@H]2C(=O)NC2(CCC2)C(=O)N(C)[C@@H](C(CC)CC)C(=O)N(C)[C@H](C(=O)N(C)C)CC(=O)N1C` [PP1216], for which, in test [1] (1:1 binding model), the Kd was 0.39 nM. Also, the 50% inhibitory concentration (IC50) in test [2] came out at 19.8 nM. The “HRAS/KRAS (ratio of KD value for HRAS to KD value for KRAS)” value in test [3] (KD ratio class) is “A (a compound having 10 or more and less than 20 is denoted as A)”. Moreover, the “NRAS/KRAS (ratio of KD value for NRAS to KD value for KRAS)” value in test [4] (KD ratio class) is given as “AA (a compound having 20 or more is denoted as AA)”.
In the case of `CCO[C@@H]1C[C@H]2C(=O)NC3(CCC3)C(=O)N(C)[C@@H](C3CCCC3)C(=O)N(C)[C@H](C(=O)N3CCOCC3)CC(=O)N(C)[C@@H](CC)C(=O)N[C@@H]([C@@H](C)CC)C(=O)N(C)CC(=O)N(C)[C@H]3C[C@@H](C)[C@@H](C)CN(C3=O)[C@@H](Cc3ccc(C(F)(F)F)cc3)C(=O)N(C)CC(=O)N[C@@H](CCc3cc(F)c(C(F)(F)F)c(F)c3)C(=O)N2C1` [PP1354], the Kd in test [1] (1:1 binding model) came to 0.056 nM. Besides, in test [2], half-maximal inhibition (IC50) was put at 3.6 nM. The “HRAS/KRAS (ratio of KD value for HRAS to KD value for KRAS)” value in test [3] (KD ratio class) is “B (a compound having 3 or more and less than 10 is denoted as B)”. Also, in test [4] (KD ratio class), the “NRAS/KRAS (ratio of KD value for NRAS to KD value for KRAS)” value was “A (a compound having 10 or more and less than 20 is denoted as A)”.
For the compound `CC[C@H](C)[C@@H]1NC(=O)[C@H](CC(C)C)N(C)C(=O)C[C@@H](C(=O)N2CCOCC2)N(C)C(=O)[C@H](C2CCCC2)N(C)C(=O)C2(CCC2)NC(=O)[C@@H]2CCCN2C(=O)[C@H](CCc2ccc(C(F)(F)F)c(Cl)c2)NC(=O)CN(C)C(=O)[C@H](Cc2ccc(C(F)(F)F)cc2)N2C[C@H](C)CC[C@@H](C2=O)N(C)C(=O)[C@@H]2CCN2C1=O` (stereo in doubt) [PP1339], in test [1] (1:1 binding model), the Kd was 0.65 nM. Also, in test [2], the IC50 was 42.1 nM. In test [3] (KD ratio class), the “HRAS/KRAS (ratio of KD value for HRAS to KD value for KRAS)” value was “B (a compound having 3 or more and less than 10 is denoted as B)”. Moreover, in test [4] (KD ratio class), the “NRAS/KRAS (ratio of KD value for NRAS to KD value for KRAS)” value is “A (a compound having 10 or more and less than 20 is denoted as A)”.
Regarding `CCOC[C@H]1C(=O)N[C@@H]([C@@H](C)CC)C(=O)N(C)CC(=O)N(C)[C@H]2C/C=C\CCN(C2=O)[C@@H](Cc2ccc(C)cc2)C(=O)N(C)CC(=O)N[C@@H](CCc2ccc(C(F)(F)F)c(OC)c2)C(=O)N2C[C@H](OCC)C[C@H]2C(=O)NC2(CC(C)(C)C2)C(=O)N(C)[C@@H](C2CCCC2)C(=O)N(C)[C@H](C(=O)N(C)CC)CC(=O)N1C` [PP2445], in test [1], the dissociation constant (Kd) worked out at 0.14 nM. Further, the half-inhibitory concentration (IC50) in test [2] was 11.7 nM. Moreover, the “HRAS/KRAS (ratio of KD value for HRAS to KD value for KRAS)” value in test [3] was “B (a compound having 3 or more and less than 10 is denoted as B)”. The “NRAS/KRAS (ratio of KD value for NRAS to KD value for KRAS)” value in test [4] was “A (a compound having 10 or more and less than 20 is denoted as A)”.
On to `CCO[C@@H]1C[C@H]2C(=O)NC3(CCC3)C(=O)N(C)[C@@H](C3CCCC3)C(=O)N(C)[C@H](C(=O)N3CCCC3)CC(=O)N(C)[C@@H](CC3CCCC3)C(=O)N[C@@H]([C@@H](C)CC)C(=O)N(C)CC(=O)N(C)[C@H]3C/C=C\CCN(C3=O)[C@@H](Cc3ccc(F)cc3)C(=O)N(C)CC(=O)N[C@@H](CCc3ccc4sccc4c3)C(=O)N2C1` [PP1391], for which the Kd in test [1] (1:1 binding model) was found to be 1.6 nM. In test [2], this compound showed an IC50 of 271 nM. In addition, the “HRAS/KRAS (ratio of KD value for HRAS to KD value for KRAS)” value in test [3] (KD ratio class) is “A (a compound having 10 or more and less than 20 is denoted as A)”. In test [4] (KD ratio class), the “NRAS/KRAS (ratio of KD value for NRAS to KD value for KRAS)” value was “A (a compound having 10 or more and less than 20 is denoted as A)”.
`CCCC[C@H]1C(=O)N[C@@H]([C@@H](C)CC)C(=O)N(C)CC(=O)N(C)[C@H]2C/C=C\CCN(C2=O)[C@@H](Cc2ccc(C(F)(F)F)cc2)C(=O)N(C)CC(=O)N[C@@H](CCc2cc(F)c(C(F)(F)F)c(F)c2)C(=O)N2C[C@H](OCC)C[C@H]2C(=O)NC2(CCC2)C(=O)N(C)[C@@H](C2CCCC2)C(=O)N(C)[C@H](C(=O)N2CCCC2)CC(=O)N1C` [PP1396, (2S,8S,12R,14S,20S,23S,27S,30S,36S,38Z)-27-butyl-20-cyclopentyl-8-[2-[3,5-difluoro-4-(trifluoromethyl)phenyl]ethyl]-12-ethoxy-4,19,22,26,32,35-hexamethyl-30-[(1S)-1-methylpropyl]-23-(pyrrolidine-1-carbonyl)-2-[[4-(trifluoromethyl)phenyl]methyl]spiro[1,4,7,10,16,19,22,26,29,32,35-undecazatricyclo[34.5.1.0^10,14]dotetracont-38-ene-17,1′-cyclobutane]-3,6,9,15,18,21,25,28,31,34,42-undecone]: in test [1] (1:1 binding model), the Kd is 0.14 nM. Further, the IC50 in test [2] came to 19.4 nM. For the same compound, the “HRAS/KRAS (ratio of KD value for HRAS to KD value for KRAS)” value in test [3] (KD ratio class) is “A (a compound having 10 or more and less than 20 is denoted as A)”. Besides, the “NRAS/KRAS (ratio of KD value for NRAS to KD value for KRAS)” value in test [4] (KD ratio class) was “AA (a compound having 20 or more is denoted as AA)”.
Take `CCOC[C@H]1C(=O)N[C@@H]([C@@H](C)CC)C(=O)N(C)CC(=O)N(C)[C@H]2C/C=C\CCN(C2=O)[C@@H](Cc2ccc(C)cc2)C(=O)N(C)CC(=O)N[C@@H](CCc2ccc(C(F)(F)F)c(OC)c2)C(=O)N2C[C@@H](C)C[C@H]2C(=O)NC2(CC(C)(C)C2)C(=O)N(C)[C@@H](C2CCCC2)C(=O)N(C)[C@H](C(=O)N(C)C)CC(=O)N1C` [PP2505]: the dissociation constant Kd in test [1] was found to be 0.13 nM. This compound yielded a half-inhibitory concentration (IC50) in test [2] of 17.2 nM. Also, the “HRAS/KRAS (ratio of KD value for HRAS to KD value for KRAS)” value in test [3] is “B (a compound having 3 or more and less than 10 is denoted as B)”. For the same compound, the “NRAS/KRAS (ratio of KD value for NRAS to KD value for KRAS)” value in test [4] was “A (a compound having 10 or more and less than 20 is denoted as A)”.
For `CCCCCC[C@H]1C(=O)N[C@@H]([C@@H](C)CC)C(=O)N(C)CC(=O)N(C)[C@H]2C/C=C\CCN(C2=O)[C@@H](Cc2ccc(C(F)(F)F)cc2)C(=O)N(C)CC(=O)N[C@@H](CCc2ccc3sccc3c2)C(=O)N2C[C@H](OCC)C[C@H]2C(=O)NC2(CCC2)C(=O)N(C)[C@@H](C(CC)CC)C(=O)N(C)[C@H](C(=O)N(C)C)CC(=O)N1C` [PP1226], in test [1] (1:1 binding model), the dissociation constant Kd came to 2.4 nM. This compound gave an IC50 in test [2] of 106 nM. Further, the “HRAS/KRAS (ratio of KD value for HRAS to KD value for KRAS)” value in test [3] (KD ratio class) is “A (a compound having 10 or more and less than 20 is denoted as A)”. Also, the “NRAS/KRAS (ratio of KD value for NRAS to KD value for KRAS)” value in test [4] (KD ratio class) is recorded as “AA (a compound having 20 or more is denoted as AA)”.
